Target: T1, Human TREX1 enzyme (amino acids 1-242) (Homo sapiens, UniProt Q9NSU2)
T1 construct: Human TREX1 enzyme (amino acids 1-242)
T1 sequence (Q9NSU2 1-242): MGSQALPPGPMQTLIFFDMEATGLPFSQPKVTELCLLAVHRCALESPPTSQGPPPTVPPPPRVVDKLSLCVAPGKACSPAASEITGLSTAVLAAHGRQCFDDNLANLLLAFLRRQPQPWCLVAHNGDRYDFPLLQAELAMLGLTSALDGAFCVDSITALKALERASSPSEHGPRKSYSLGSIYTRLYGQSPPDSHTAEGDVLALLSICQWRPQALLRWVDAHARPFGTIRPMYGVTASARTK
Test: Human TREX1 enzymatic assay with dsDNA native oligonucleotide (Picogreen fluorescence)
Type: biochemical
Settings: 2 mM dithiothreitol in assay buffer; 50 nM dsDNA oligonucleotide; 30 min preincubation at 25° C.; read-out: TREX1/Human + DTT IC50 AVG
In short: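 Remaining dsDNA quantified by Picogreen fluorescence after EDTA quench, with no-enzyme and DMSO wells as controls. Reactions used 50 nM annealed oligonucleotide for 5–15 min at 25 °C, after a 30 min compound–enzyme preincubation (0.8–0.16 nM TREX1; 2% DMSO; pH 7.7 Tris, 5 mM MgCl2).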

| IC50 | Structure (SMILES) |
| --- | --- |
| > 100000 nM | Oc1cc(-c2nc3ccccc3n2C2CCC2)cc(OC(F)(F)F)c1O [Example 233, 5-(1-cyclobutyl-1H-benzo[d]imidazol-2-yl)-3-(trifluoromethoxy)benzene-1,2-diol] |
| 1000 to 10000 nM | CCOc1cc(-c2nc3ccccc3n2C2CCC2)cc(O)c1O [Example 234, 5-(1-cyclobutyl-1H-1,3-benzodiazol-2-yl)-3-ethoxybenzene-1,2-diol] |
| 100 to 1000 nM | COc1cc(-c2nc3cc(N)ccc3n2C2CCC2)c(C)c(O)c1O [Example 235, 4-(5-amino-1-cyclobutyl-1H-benzo[d]imidazol-2-yl)-6-methoxy-3-methylbenzene-1,2-diol] |
| 100 to 1000 nM | COc1cc(-c2nc3ccc(CNc4ccccc4)cc3n2C2(C)COC2)c(F)c(O)c1O [Example 236, 3-fluoro-6-methoxy-4-(1-(3-methyloxetan-3-yl)-6-((phenylamino)methyl)-1H-benzo[d]imidazol-2-yl)benzene-1,2-diol] |
| ≤ 100 nM | COc1cc(-c2nc3cc(NC(C)=O)ncc3n2C2(C)COC2)c(F)c(O)c1O [Example 237, N-(2-(2-fluoro-3,4-dihydroxy-5-methoxyphenyl)-3-(3-methyloxetan-3-yl)-3H-imidazo[4,5-c]pyridin-6-yl)acetamide] |
| ≤ 100 nM | COc1cc(-c2nc3ccc(-c4nnco4)cc3n2C2(C)COC2)c(F)c(O)c1O [Example 238, 3-fluoro-6-methoxy-4-[1-(3-methyloxetan-3-yl)-6-(1,3,4-oxadiazol-2-yl)-1H-1,3-benzodiazol-2-yl] benzene-1,2-diol] |
| > 100000 nM | COc1cc(-c2nc3ccccc3n2CC2CCC2)c(C)c(O)c1O [Example 239, 4-(1-(cyclobutylmethyl)-1H-benzo[d]imidazol-2-yl)-6-methoxy-3-methylbenzene-1,2-diol] |
| > 100000 nM | COc1cc(-c2nc3cc(N4CCC4)ccc3[nH]2)c(C2CC2)c(O)c1O [Example 242, 4-(5-(azetidin-1-yl)-1H-benzo[d]imidazol-2-yl)-3-cyclopropyl-6-methoxybenzene-1,2-diol] |
| 100 to 1000 nM | COc1cc(-c2nc3ccc(C(=O)NC(C)(C)C)cc3n2C2(C)COC2)c(F)c(O)c1O [Example 243, N-tert-butyl-2-(2-fluoro-3,4-dihydroxy-5-methoxyphenyl)-1-(3-methyloxetan-3-yl)-1H-1,3-benzodiazole-6-carboxamide] |
| ≤ 100 nM | COc1cc(-c2nc3ccc(C(=O)NCC(F)(F)F)cc3n2C2(C)COC2)c(F)c(O)c1O [Example 244, 2-(2-fluoro-3,4-dihydroxy-5-methoxyphenyl)-1-(3-methyloxetan-3-yl)-N-(2,2,2-trifluoroethyl)-1H-1,3-benzodiazole-6-carboxamide] |
| 1000 to 10000 nM | COc1cc(-c2nc3ccc(C(=O)N(C)C)cc3n2C2(C)COC2)c(F)c(O)c1O [Example 245, 2-(2-fluoro-3,4-dihydroxy-5-methoxyphenyl)-N,N-dimethyl-1-(3-methyloxetan-3-yl)-1H-benzo[d]imidazole-6-carboxamide] |
| ≤ 100 nM | COc1cc(-c2nc3ccc(C(=O)Nc4ccccc4)cc3n2C2(C)COC2)c(F)c(O)c1O [Example 246, 2-(2-fluoro-3,4-dihydroxy-5-methoxyphenyl)-1-(3-methyloxetan-3-yl)-N-phenyl-1H-benzo[d]imidazole-6-carboxamide] |
| ≤ 100 nM | COc1cc(-c2nc3ccc(C(=O)Nc4cnoc4)cc3n2C2(C)COC2)c(F)c(O)c1O [Example 247, 2-(2-fluoro-3,4-dihydroxy-5-methoxyphenyl)-N-(isoxazol-4-yl)-1-(3-methyloxetan-3-yl)-1H-benzo[d]imidazole-6-carboxamide] |
| ≤ 100 nM | COc1cc(-c2nc3ccc(C(=O)Nc4ccncc4)cc3n2C2(C)COC2)c(F)c(O)c1O [Example 248, 2-(2-fluoro-3,4-dihydroxy-5-methoxyphenyl)-1-(3-methyloxetan-3-yl)-N-(pyridin-4-yl)-1H-1,3-benzodiazole-6-carboxamide] |
| ≤ 100 nM | COc1cc(-c2nc3ccc(C(=O)NC45CC(C4)C5)cc3n2C2(C)COC2)c(F)c(O)c1O [Example 249, N-(bicyclo[1.1.1]pentan-1-yl)-2-(2-fluoro-3,4-dihydroxy-5-methoxyphenyl)-1-(3-methyloxetan-3-yl)-1H-benzo[d]imidazole-6-carboxamide] |
| ≤ 100 nM | COc1cc(-c2nc3ccc(C(=O)Nc4cccnc4)cc3n2C2(C)COC2)c(F)c(O)c1O [Example 250, 2-(2-fluoro-3,4-dihydroxy-5-methoxyphenyl)-1-(3-methyloxetan-3-yl)-N-(pyridin-3-yl)-1H-1,3-benzodiazole-6-carboxamide] |
| ≤ 100 nM | COc1cc(-c2nc3ccc(C(=O)NCC(F)F)cc3n2C2(C)COC2)c(F)c(O)c1O [Example 251, N-(2,2-difluoroethyl)-2-(2-fluoro-3,4-dihydroxy-5-methoxyphenyl)-1-(3-methyloxetan-3-yl)-1H-1,3-benzodiazole-6-carboxamide] |
| ≤ 100 nM | COc1cc(-c2nc3ccc(C(=O)NC(C)C)cc3n2C2(C)COC2)c(F)c(O)c1O [Example 252, 2-(2-fluoro-3,4-dihydroxy-5-methoxyphenyl)-N-isopropyl-1-(3-methyloxetan-3-yl)-1H-benzo[d]imidazole-6-carboxamide] |
| ≤ 100 nM | COc1cc(-c2nc3ccc(C(=O)NC4CC4)cc3n2C2(C)COC2)c(F)c(O)c1O [Example 253, N-cyclopropyl-2-(2-fluoro-3,4-dihydroxy-5-methoxyphenyl)-1-(3-methyloxetan-3-yl)-1H-benzo[d]imidazole-6-carboxamide] |
| ≤ 100 nM | COc1cc(-c2nc3ccc(C(=O)NC4COC4)cc3n2C2(C)COC2)c(F)c(O)c1O [Example 254, 2-(2-fluoro-3,4-dihydroxy-5-methoxyphenyl)-1-(3-methyloxetan-3-yl)-N-(oxetan-3-yl)-1H-benzo[d]imidazole-6-carboxamide] |
| 100 to 1000 nM | COc1cc(-c2nc3ccc(C(=O)NC4CCNCC4)cc3n2C2(C)COC2)c(F)c(O)c1O [Example 255, 2-(2-fluoro-3,4-dihydroxy-5-methoxyphenyl)-1-(3-methyloxetan-3-yl)-N-(piperidin-4-yl)-1H-benzo[d]imidazole-6-carboxamide] |
| ≤ 100 nM | COc1cc(-c2nc3ccc(C(=O)NC4CCC(F)(F)CC4)cc3n2C2(C)COC2)c(F)c(O)c1O [Example 256, N-(4,4-difluorocyclohexyl)-2-(2-fluoro-3,4-dihydroxy-5-methoxyphenyl)-1-(3-methyloxetan-3-yl)-1H-benzo[d]imidazole-6-carboxamide] |
| 100 to 1000 nM | COc1cc(-c2nc3ccc(C(=O)NC4CCN(C)C4)cc3n2C2(C)COC2)c(F)c(O)c1O (stereo not shown) [Example 257, 2-(2-fluoro-3,4-dihydroxy-5-methoxyphenyl)-1-(3-methyloxetan-3-yl)-N-(1-methylpyrrolidin-3-yl)-1H-benzo[d]imidazole-6-carboxamide] |
| ≤ 100 nM | COc1cc(-c2nc3ccc(C(=O)Nc4ccon4)cc3n2C2(C)COC2)c(F)c(O)c1O [Example 258, 2-(2-fluoro-3,4-dihydroxy-5-methoxyphenyl)-1-(3-methyloxetan-3-yl)-N-(1,2-oxazol-3-yl)-1H-1,3-benzodiazole-6-carboxamide] |
| ≤ 100 nM | COc1cc(-c2nc3ccc(C(=O)NC4CNC4)cc3n2C2(C)COC2)c(F)c(O)c1O [Example 259, N-(azetidin-3-yl)-2-(2-fluoro-3,4-dihydroxy-5-methoxyphenyl)-1-(3-methyloxetan-3-yl)-1H-1,3-benzodiazole-6-carboxamide] |
